From the OPERA property sets (Mansouri et al. 2018)

Settings: not given

Structure (SMILES)	log10 vapour pressure (mmHg)	melting point [°C]	boiling point [°C]	log10 biodegradation half-life (days)	ready biodegradability	log10 Henry constant (atm·m³/mol)	log10 Koc (L/kg)
CCOP(=S)(Oc1cnc(C(C)(C)C)nc1)OC(C)C (configuration not stated)	-4.43						
O=S(=O)(Cl)c1ccc(Br)cc1		76					
c1ccc2c(c1)CCCC2	-0.434	-35.7	208	0.903	not readily biodegradable		
Nc1ccc2ccccc2c1S(=O)(=O)O		180			not readily biodegradable		
CNCCc1ccc(O)c(O)c1		188					
Fc1c(F)c(F)c(CBr)c(F)c1F			174				
CCOC(=O)c1cccc(C(=O)OCC)c1		11.5	302				
CCOCCC(OCC)OCC		53	185				
CCc1cc2ccccc2c2ccccc12		62.5					
Brc1cccc(Oc2ccc(Br)c(Br)c2Br)c1	-5.66						
Nc1ncnc2c1ncn2[C@@H]1O[C@H](CO)[C@@H](OP(=O)(O)O)[C@H]1O		197					
Clc1cc2c(Cl)c(Cl)c(Cl)c(Cl)c2c(Cl)c1Cl	-7.07						
CCC(N)C(O)c1ccccc1 (configuration not stated)		79.5					
CC(=O)C1CCCC1			158				
CCOC(=O)CNc1nc(Cl)nc(NC(C)C)n1		110					
CN(C)B(F)N(C)C		-44.3	106				
CCCCC(CC)COC(=O)Cl (configuration not stated)	-0.775		207				
C1CC2CCC1C2		87.5	105				
CCOc1ccc(Cc2nc(C)cc3cc(OC)c(OC)cc23)cc1OC		124					
COc1cccc(CC(C)=O)c1			259				
CCOC(=O)CC(=O)CC			191				
FC(F)(F)C(F)(F)C(F)(F)N(C(F)(F)C(F)(F)C(F)(F)F)C(F)(F)C(F)(F)C(F)(F)F		-52	130				
C#CCNC			83				
OCC(O)COc1ccccc1Cl (configuration not stated)		71.5					

Structure (SMILES)	log10 vapour pressure (mmHg)	melting point [°C]	boiling point [°C]	log10 biodegradation half-life (days)	ready biodegradability	log10 Henry constant (atm·m³/mol)	log10 Koc (L/kg)
COc1ccc(CCNCC(O)COc2cccc(C)c2)cc1OC (configuration not stated)		138					
O=[N+]([O-])c1cc[n+]([O-])cc1		160					
CC(=O)OCOC(=O)[C@@H]1N2C(=O)[C@@H](NC(=O)Cc3ccccc3)[C@H]2SC1(C)C		107					
C=CC(C)C(C)C (configuration not stated)			80.8				
O=C1c2ccccc2C(=O)c2cc(O)ccc21	-10.2	306					
Cc1cc(=O)oc2cc(O)c(O)cc12		275					
CCCCOCCOP(=O)(OCCOCCCC)OCCOCCCC		-70			not readily biodegradable		
FCC(F)(F)F	3.7	-101	-26			-1.3	
CS(=O)(=O)c1ccc(C(=O)O)cc1		270					
CC(CCC(C)C)=NO			196				
CCC(Cc1c(I)cc(I)c(O)c1I)C(=O)O (configuration not stated)		147					
CC1=CC(=O)CC(C)(C)C1	-0.358	-8.1	215		readily biodegradable		1.4
O=C(Nc1cccc(Cl)c1)OCC#CCCl	-6.42	75			not readily biodegradable		3.06
CCc1ccc(C(C)=O)cc1	-0.0389	-20.6					
Clc1ccc2nccnc2c1		64					
CCCCCCCCCCCCCCC(=O)OC	-3.79	18.5					
CC(C)=CC1C(C(=O)OCc2coc(Cc3ccccc3)c2)C1(C)C (configuration not stated)		44.2					5
FC(F)(I)C(F)(F)C(F)(F)C(F)(F)I		-9	150				
CC(C)=C1CC[C@@H](C)CC1=O	-0.91		224				
CC1CCCCC1(C)C (configuration not stated)		-29	145				
CCCCCCc1cccc2ccccc12		-18	322				
O=C1CSC(=S)N1c1ccccc1		194					
O=C1c2ccccc2C(=O)c2c1cc(S(=O)(=O)[O][Na])c(O)c2O					not readily biodegradable		
Nc1ccccc1C(=O)O		145			readily biodegradable		

Structure (SMILES)	log10 vapour pressure (mmHg)	melting point [°C]	boiling point [°C]	log10 biodegradation half-life (days)	ready biodegradability	log10 Henry constant (atm·m³/mol)	log10 Koc (L/kg)
CC12CCC(C1)C(C)(C)C2=O (configuration not stated)	-0.0876	5.37					
CCCC(=O)C1=C(O)C(C)(C)C(O)=C(Cc2c(OC)cc(O)c(C(=O)CCC)c2O)C1=O		150					
O=[N+]([O-])c1cccc2cccnc12		90					
O=C(OCCOC(=O)C(Cl)(Cl)Cl)C(Cl)(Cl)Cl		40					
O=C(c1ccccc1)c1ccc(Br)cc1		82.5	350				
COc1ccc2[nH]cc(CCN(C)C)c2c1		69.5					
C1CC2CCCC(C1)C2		146	170				
O=C1c2ccccc2C(=O)c2c(O)ccc(O)c21	-7.61	200					
C=C(C)[C@@H]1CC[C@]2(C)CC[C@]3(C)[C@H](CC[C@@H]4[C@@]5(C)CC[C@H](O)C(C)(C)[C@@H]5CC[C@]43C)[C@@H]12		216					
CC(C)=CCC[C@@H](C)C1=C(O)C(=O)C(C)=CC1=O		104					
NCCNCCNCCNCCN		-30	342				
BrC/C=C/CBr		53.4	203				
CC(C)(c1ccc(OCCO)cc1)c1ccc(OCCO)cc1					not readily biodegradable		
Brc1cccc(Br)c1	-0.571	-7	218				
C=C(C)[C@@H]1CC[C@@H](C)C[C@@H]1O		78					
Nc1ccc(S(=O)(=O)Nc2ccc(Cl)nn2)cc1		187					
c1ccc(Cn2cncn2)cc1		49					
OCc1ccc(F)cc1		23	210				
CCC(C)C(C)(COC(N)=O)COC(N)=O (configuration not stated)		77					
CCCCCCCCCCCCCCCCCC(=O)NCO					readily biodegradable		
C=CCc1ccccc1C			182				
CCCCCCCCCCCCCCCCCCC1CC(=O)OC1=O (configuration not stated)					not readily biodegradable		
C=Cc1ccccc1Br		-52.5	209				
C#COCC			50				

Structure (SMILES)	log10 vapour pressure (mmHg)	melting point [°C]	boiling point [°C]	log10 biodegradation half-life (days)	ready biodegradability	log10 Henry constant (atm·m³/mol)	log10 Koc (L/kg)
C[C@@H]1O[C@@H](O[C@H]2CC[C@]3(C=O)[C@H]4CC[C@]5(C)[C@@H](C6=CC(=O)OC6)CC[C@]5(O)[C@@H]4CC[C@]3(O)C2)[C@H](O)[C@H](O)[C@H]1O		238					
CCB(Cl)CC		-84.6	78.5				
c1ccc([Se]c2ccccc2)cc1		2.5	302				
CC(O)C(=O)O (configuration not stated)	-1.09	40.9			readily biodegradable		
CNC(=O)CSP(=O)(OC)OC	-4.61	-28					
C=CCc1cccc2ccccc12			266				
CCn1c2ccccc2c2ccccc21	-3.66	68					
CC(CCc1ccccc1)NC(C)C(O)c1cc(I)c(O)c(I)c1 (configuration not stated)		212					
CC(=O)C(=O)O	0.111	13.8				-8.49	
CCCC(Cl)CC (configuration not stated)			123				
COC(=O)CCCCC(=O)OC	-1.22	10.3					
CCC(C)CCCC(C)C (configuration not stated)	0.469		160				
CC1CCOS(=O)O1 (configuration not stated)		5	185				
ClC#CCl		-66	33				
CCCc1ccncc1			185				
CC(F)(F)C(F)(F)F	3.54		-17.4				
OC(O)C(Cl)(Cl)Cl	1.18	57	98				
CCCCC(C=O)CC (configuration not stated)	0.255		163				
O=CC[C@@H](O)C(O)[C@H](O)CO (stereo in doubt)		146					
CCSC	2.2	-106	66.7				
OC1CCCC1	0.396	-19	140				
CC1(C)CC[C@]2(C)CC=C3[C@]4(C)CC[C@H]5C(C)(C)[C@@H](O)CC[C@]5(C)[C@H]4CC[C@@]3(C)[C@@H]2C1		284					
Cc1ccc(Sc2ccc(C)cc2)cc1		57.3					

Same assay, conditions: fish

Structure (SMILES)	log10 BCF	log10 biotransformation half-life (days)
c1ccc2c(c1)CCCC2	2.53	0.75
Nc1ccc2ccccc2c1S(=O)(=O)O	0.78	
CCc1cc2ccccc2c2ccccc12		0.29
CCCCOCCOP(=O)(OCCOCCCC)OCCOCCCC	0.76	
CC1=CC(=O)CC(C)(C)C1	0.3	-1.29
Brc1cccc(Br)c1	2.82	1.16
ClC1=C(Cl)C2(Cl)C=CC1(Cl)C2(Cl)Cl	3.81	
CCC(C)CCCC(C)C (configuration not stated)		0.61
